Our source for the EC50 values is US10414811B2, “Protease-resistant lipidated GLP-1 analogs” (MEDIMMUNE LIMITED, priority 2015, dated 2019).

Structures are written as SMILES. Where two headings read alike, the source gives them in different places. Numbered stars: 1 amine (or outer) side, 2 acyl side, 3 side chain; on linkers, the order of the positions; unused ones are H or OH. Square brackets hold non-standard residues; d marks the D form. Side chains are listed from the residue outwards. Peptide text beside a SMILES is read from it. * marks the point of attachment. γGlu = O=C(O)[C@H](CCC(=O)[*:2])N[*:1]; Palmitoyl = CCCCCCCCCCCCCCCC(=O)*; αMeF = C[C@](N)(Cc1ccccc1)C(=O)O; αMeK = C[C@](N)(CCCCN)C(=O)O; Lauroyl = CCCCCCCCCCCC(=O)*; αMeS = C[C@](N)(CO)C(=O)O; AEEA = NCCOCCOCC(=O)O; Aib = CC(C)(N)C(=O)O

Common to all, as to assay type: cell-based
Test [1] has as its target T1, human glucose-dependent insulinotropic peptide receptor (GIPR) (Homo sapiens, UniProt P48546).
T1 construct: expressed in transfected cells
T1 sequence (P48546 22-466): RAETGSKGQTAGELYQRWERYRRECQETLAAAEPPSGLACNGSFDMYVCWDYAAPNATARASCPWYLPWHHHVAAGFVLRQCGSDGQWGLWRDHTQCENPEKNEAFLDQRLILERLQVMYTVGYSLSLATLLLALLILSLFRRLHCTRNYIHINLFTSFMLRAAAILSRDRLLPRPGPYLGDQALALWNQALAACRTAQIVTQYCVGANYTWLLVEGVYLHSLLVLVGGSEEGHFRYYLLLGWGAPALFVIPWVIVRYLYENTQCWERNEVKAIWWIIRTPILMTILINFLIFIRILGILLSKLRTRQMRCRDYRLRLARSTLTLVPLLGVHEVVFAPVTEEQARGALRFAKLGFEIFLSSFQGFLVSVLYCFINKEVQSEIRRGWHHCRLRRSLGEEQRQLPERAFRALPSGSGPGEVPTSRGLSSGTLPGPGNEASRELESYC
Briefly: cAMP assay, human GIPR cells. In outline: (§1)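 Peptide-stimulated cAMP measured by two-step HTRF after a 30 min room-temperature incubation with receptor-expressing cells (hGLP-1R, hGIPR at 1×10^5 cells/ml; hGCGR at 2×10^5 cells/ml). Duplicate dilutions; EC50 from 4-parameter logistic fit of % Delta F.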
(cAMP levels reflect the balance of adenylyl cyclase and phosphodiesterase activity.)

For another test, the target named is T2, GLP-1R (INS1e assay) (Rattus norvegicus, UniProt P32301).
T2 construct: endogenous in cells; host or cells: INS-1E cells
T2 sequence (P32301 22-463): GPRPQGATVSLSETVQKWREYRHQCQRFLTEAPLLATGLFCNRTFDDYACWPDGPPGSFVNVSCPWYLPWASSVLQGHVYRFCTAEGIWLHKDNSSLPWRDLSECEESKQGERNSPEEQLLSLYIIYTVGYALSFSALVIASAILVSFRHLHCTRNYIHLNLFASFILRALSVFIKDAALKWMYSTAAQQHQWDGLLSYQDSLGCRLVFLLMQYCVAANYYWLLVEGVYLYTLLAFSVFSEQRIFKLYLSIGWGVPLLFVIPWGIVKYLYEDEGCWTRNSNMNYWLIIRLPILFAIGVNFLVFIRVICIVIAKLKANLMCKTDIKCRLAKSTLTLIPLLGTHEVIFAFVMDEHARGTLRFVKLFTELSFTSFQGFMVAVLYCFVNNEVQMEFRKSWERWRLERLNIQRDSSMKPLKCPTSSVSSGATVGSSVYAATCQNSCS
Briefly: INS1e assay, cAMP activity at GLP-1R. In outline: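 cAMP was quantified by two-step HTRF, using anti-cAMP cryptate donor and cAMP-d2 acceptor, each diluted 1/20 in conjugate and lysis buffer. EC50 values of the synthetic peptides were derived from the cAMP readout.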

Test [2] has as its target T3, human GLP-1 receptor (GLP-1R) (Homo sapiens, UniProt P43220).
T3 construct: expressed in transfected cells
Briefly: cAMP assay, human GLP-1R cells. In outline: as §1

The target in test [3] is T4, human glucagon receptor (GCGR) (Homo sapiens, UniProt P47871).
T4 construct: expressed in transfected cells
T4 sequence (P47871 26-477): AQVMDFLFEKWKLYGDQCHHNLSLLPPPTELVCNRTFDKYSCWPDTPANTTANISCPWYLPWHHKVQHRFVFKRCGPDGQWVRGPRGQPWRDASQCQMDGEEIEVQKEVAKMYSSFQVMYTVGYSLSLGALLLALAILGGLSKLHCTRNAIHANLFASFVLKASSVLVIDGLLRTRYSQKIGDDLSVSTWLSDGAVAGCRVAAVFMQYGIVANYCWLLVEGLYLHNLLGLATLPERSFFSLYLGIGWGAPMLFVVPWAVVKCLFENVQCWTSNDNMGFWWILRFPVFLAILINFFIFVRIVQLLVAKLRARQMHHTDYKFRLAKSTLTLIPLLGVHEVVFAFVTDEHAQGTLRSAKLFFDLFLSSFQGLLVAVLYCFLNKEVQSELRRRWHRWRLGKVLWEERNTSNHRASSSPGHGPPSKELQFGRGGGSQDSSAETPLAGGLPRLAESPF
Briefly: cAMP assay, human GCGR cells. The gist of the method: as §1

Where [4] appears, read: cAMP assay, first determination (n1), read-out: Primary assay EC50 GIP-R (n1).
The mark [5] stands for this setting: cAMP assay, second determination (n2), read-out: Primary assay EC50 GIP-R (n2).
Where [6] appears, read: mono-lipidated peptides, mean of n1 and n2, read-out: INS1e assay EC50 Mean pM GLP-1R.
Setting [7] is: mono-lipidated peptides, replicate n1, read-out: INS1e assay EC50 GLP-1R n1.
Setting [8] is: mono-lipidated peptides, replicate n2, read-out: INS1e assay EC50 GLP-1R n2.
[9] abbreviates: cAMP assay, first determination (n1), read-out: Primary assay EC50 GLP-1R n1.
Setting [10] is: cAMP assay, second determination (n2), read-out: Primary assay EC50 GLP-1R n2.
Setting [11] is: mean of n1 and n2, read-out: Mean pM GLP-1R.
Where [12] appears, read: cAMP assay, first determination (n1), read-out: Primary assay EC50 Gluc-R (n1).
Setting [13] is: cAMP assay, second determination (n2), read-out: Primary assay EC50 Gluc-R (n2).

T3 sequence (P43220 24-463): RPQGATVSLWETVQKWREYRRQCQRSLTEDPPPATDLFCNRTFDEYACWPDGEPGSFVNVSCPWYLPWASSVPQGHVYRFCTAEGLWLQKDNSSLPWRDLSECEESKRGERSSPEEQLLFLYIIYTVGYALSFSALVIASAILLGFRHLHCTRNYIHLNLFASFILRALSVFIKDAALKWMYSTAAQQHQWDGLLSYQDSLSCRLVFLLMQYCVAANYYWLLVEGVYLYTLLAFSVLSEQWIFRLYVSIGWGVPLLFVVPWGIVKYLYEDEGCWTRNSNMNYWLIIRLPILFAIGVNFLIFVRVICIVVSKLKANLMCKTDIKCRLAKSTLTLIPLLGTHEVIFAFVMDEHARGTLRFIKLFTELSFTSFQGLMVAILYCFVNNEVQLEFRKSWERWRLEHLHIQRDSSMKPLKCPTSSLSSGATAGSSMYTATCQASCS

In the case of `CCCCCCCCCCCC(=O)N[C@@H](CCC(=O)NCCOCCOCC(=O)NCCOCCOCC(=O)NCCCC[C@H](NC(=O)[C@H](C)NC(=O)[C@@H](NC(=O)[C@H](Cc1ccccc1)NC(=O)[C@H](CCCCNC(=O)COCCOCCNC(=O)COCCOCCNC(=O)CC[C@H](NC(=O)CCCCCCCCCCC)C(=O)O)NC(=O)[C@](C)(CCCCN)NC(=O)[C@H](C)NC(=O)[C@H](C)NC(=O)[C@H](CCC(=O)O)NC(=O)CNC(=O)[C@H](CCC(=O)O)NC(=O)[C@H](CC(C)C)NC(=O)[C@H](CCCCNC(=O)COCCOCCNC(=O)COCCOCCNC(=O)CC[C@H](NC(=O)CCCCCCCCCCC)C(=O)O)NC(=O)[C@H](CO)NC(=O)[C@](C)(CO)NC(=O)[C@@H](NC(=O)[C@H](CC(=O)O)NC(=O)[C@H](CO)NC(=O)[C@@H](NC(=O)[C@](C)(Cc1ccccc1)NC(=O)[C@H](CO)NC(=O)CNC(=O)[C@H](CCC(=O)O)NC(=O)C(C)(C)NC(=O)[C@@H](N)Cc1c[nH]cn1)[C@@H](C)O)C(C)C)[C@@H](C)CC)C(=O)N[C@H](C(=O)N[C@H](C(=O)N[C@@H](CCC(=O)O)C(=O)NCC(=O)NCC(N)=O)C(C)C)C(C)C)C(=O)O` [compound 466] (H-H[Aib]EGS[αMeF]TSDV[αMeS]SK([AEEA-AEEA-γGlu-Lauroyl])LEGEAA[αMeK]K([AEEA-AEEA-γGlu-Lauroyl])FIAK([AEEA-AEEA-γGlu-Lauroyl])VVEGG-NH2; N-terminus assumed), the EC50 worked out at 20.2 nM in test [1] (tris-lipidated peptides, first replicate, read-out: Primary assay EC50 GIP-R (n1)); 3200 pM on GLP-1R (INS1e assay) (tris-lipidated peptides, mean of n1 and n2, read-out: INS1e assay EC50 Mean pM GLP-1R); 3860 pM on GLP-1R (INS1e assay) (tris-lipidated peptides, replicate n1, read-out: INS1e assay EC50 GLP-1R n1); 2550 pM on GLP-1R (INS1e assay) (tris-lipidated peptides, replicate n2, read-out: INS1e assay EC50 GLP-1R n2); 22.4 pM in test [2] (tris-lipidated peptides, mean of n1 and n2, read-out: Primary assay EC50 Mean pM GLP-1R); 17.2 pM in test [2] (tris-lipidated peptides, replicate n1, read-out: Primary assay EC50 GLP-1R n1). Besides, the EC50 in test [2] (tris-lipidated peptides, replicate n2, read-out: Primary assay EC50 GLP-1R n2) was 27.5 pM; in test [3] (tris-lipidated peptides, first replicate, read-out: Primary assay EC50 Gluc-R (n1)) it was 20.2 nM.
Regarding `CC[C@H](C)[C@H](NC(=O)[C@](C)(Cc1ccccc1)NC(=O)[C@H](CCC(=O)O)NC(=O)[C@](C)(CCCCN)NC(=O)[C@H](C)NC(=O)[C@H](C)NC(=O)[C@H](CCC(=O)O)NC(=O)CNC(=O)[C@H](CCC(=O)O)NC(=O)[C@H](CC(C)C)NC(=O)[C@](C)(Cc1ccccc1)NC(=O)[C@H](CO)NC(=O)[C@](C)(CO)NC(=O)[C@@H](NC(=O)[C@H](CC(=O)O)NC(=O)[C@H](CO)NC(=O)[C@@H](NC(=O)[C@](C)(Cc1ccccc1)NC(=O)[C@H](CO)NC(=O)CNC(=O)[C@H](CCC(=O)O)NC(=O)C(C)(C)NC(=O)[C@@H](N)Cc1c[nH]cn1)[C@@H](C)O)C(C)C)C(=O)N[C@@H](C)C(=O)N[C@@](C)(Cc1ccccc1)C(=O)N[C@H](C(=O)N[C@H](C(=O)N[C@@H](CCCCNC(=O)COCCOCCNC(=O)COCCOCCNC(=O)CC[C@H](NC(=O)CCCCCCCCCCCCCCCCC(=O)O)C(=O)O)C(=O)NCC(=O)NCC(N)=O)C(C)C)C(C)C` [compound 101], the EC50 was no less than 25 nM in test [1] (setting [4]); no less than 25.4 nM in test [1] (setting [5]); 4060 pM on GLP-1R (INS1e assay) (setting [6]); 1470 pM at GLP-1R (INS1e assay) (setting [7]); 6650 pM on GLP-1R (INS1e assay) (setting [8]); 58 pM in test [2] (setting [9]). Further, the EC50 in test [2] (setting [10]) was 51.2 pM; in test [2] (setting [11]), 55 pM; in test [3] (setting [12]), no less than 25 nM; in test [3] (setting [13]), no less than 25.4 nM.
In the case of `CCCCCCCCCCCCCCCC(=O)N[C@@H](CCC(=O)NCCCC[C@H](NC(=O)[C@@H](NC(=O)[C@@H](NC(=O)[C@](C)(Cc1ccccc1)NC(=O)[C@H](C)NC(=O)[C@@H](NC(=O)[C@](C)(Cc1ccccc1)NC(=O)[C@H](CCC(=O)O)NC(=O)[C@](C)(CCCCN)NC(=O)[C@H](C)NC(=O)[C@H](C)NC(=O)[C@H](CCC(=O)O)NC(=O)CNC(=O)[C@H](CCC(=O)O)NC(=O)[C@H](CC(C)C)NC(=O)[C@](C)(Cc1ccccc1)NC(=O)[C@H](CO)NC(=O)[C@](C)(CO)NC(=O)[C@@H](NC(=O)[C@H](CC(=O)O)NC(=O)[C@H](CO)NC(=O)[C@@H](NC(=O)[C@](C)(Cc1ccccc1)NC(=O)[C@H](CO)NC(=O)CNC(=O)[C@H](CCC(=O)O)NC(=O)C(C)(C)NC(=O)[C@@H](N)Cc1c[nH]cn1)[C@@H](C)O)C(C)C)[C@@H](C)CC)C(C)C)C(C)C)C(=O)NCC(=O)NCC(N)=O)C(=O)O` [compound 72], the EC50 is no less than 28 nM in test [1] (setting [4]); no less than 28 nM in test [1] (setting [5]); 6160 pM on GLP-1R (INS1e assay) (setting [6]); 4260 pM at GLP-1R (INS1e assay) (setting [7]); 8070 pM at GLP-1R (INS1e assay) (setting [8]); 46 pM in test [2] (setting [9]). Moreover, the EC50 was 52 pM in test [2] (setting [10]), 49 pM in test [2] (setting [11]), no less than 28 nM in test [3] (setting [12]) and no less than 28 nM in test [3] (setting [13]).
In the case of `CCCCCCCCCCCCCCCC(=O)N[C@@H](CCC(=O)NCCCC[C@H](NC(=O)[C@H](CO)NC(=O)[C@@H](NC(=O)[C@](C)(Cc1ccccc1)NC(=O)[C@H](CO)NC(=O)CNC(=O)[C@H](CCC(=O)O)NC(=O)C(C)(C)NC(=O)[C@@H](N)Cc1c[nH]cn1)[C@@H](C)O)C(=O)N[C@H](C(=O)N[C@@](C)(CO)C(=O)N[C@@H](CO)C(=O)N[C@@](C)(Cc1ccccc1)C(=O)N[C@@H](CC(C)C)C(=O)N[C@@H](CCC(=O)O)C(=O)NCC(=O)N[C@@H](CCC(=O)O)C(=O)N[C@@H](C)C(=O)N[C@@H](C)C(=O)N[C@@](C)(CCCCN)C(=O)N[C@@H](CCC(=O)O)C(=O)N[C@@](C)(Cc1ccccc1)C(=O)N[C@H](C(=O)N[C@@H](C)C(=O)N[C@@](C)(Cc1ccccc1)C(=O)N[C@H](C(=O)N[C@H](C(=O)N[C@@](C)(CCCCN)C(=O)NCC(=O)NCC(N)=O)C(C)C)C(C)C)[C@@H](C)CC)C(C)C)C(=O)O` [compound 91] (H-H[Aib]EGS[αMeF]TSK([γGlu-Palmitoyl])V[αMeS]S[αMeF]LEGEAA[αMeK]E[αMeF]IA[αMeF]VV[αMeK]GG-NH2), the EC50 in test [1] (setting [4]) is no less than 28 nM; in test [1] (setting [5]), no less than 28 nM; at GLP-1R (INS1e assay) (setting [6]), 2720 pM; at GLP-1R (INS1e assay) (setting [7]), 1930 pM; on GLP-1R (INS1e assay) (setting [8]) it was 3500 pM; in test [2] (setting [9]) it was 21 pM. In addition, the EC50 in test [2] (setting [10]) was 27 pM; in test [2] (setting [11]), 24 pM; in test [3] (setting [12]) it was no less than 28 nM; in test [3] (setting [13]), no less than 28 nM.
